For 83 compounds, EC50 and Ki results are on record in PubChem BioAssay AID2048 (NMMLSC, 2009).

SMILES strings stand for the structures. Calls of active or inactive are those of the source.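 Rule for the calls: active = EC50 at most 30 µM plus a dose-response curve spanning at least 25% response; inactive = the rest.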

The Ki is the dissociation constant of the complex between target and ligand, obtained from inhibition or displacement.

The first experiment addresses Ras-related C3 botulinum toxin substrate 1 (Homo sapiens) (UniProt P63000). As to the kind of experiment: activated mutant Rac1 GTP binding inhibitors, SAR follow-up, biochemical, pyrazoline analogs, multiplex bead flow cytometry (AID 2048). Conditions: Bead-based flow cytometry, Bodipy-FL-GTP binding to GST-Rac1. Background: Flow cytometry measures light scatter and fluorescence of single cells or particles in a stream.
On to `Clc1cccc(N2N=C(c3ccccc3)CC2c2ccccc2)c1` (configuration not stated), for which the EC50 result was “inactive”.
On the same count and under the same terms, then `COc1ccc(C2CC(c3ccc(F)cc3)=NN2c2cccc(F)c2)cc1OC` (configuration not stated), with “inactive”; and `COc1ccc(C2CC(C3CCCCC3)=NN2c2ccc(S(N)(=O)=O)cc2)cc1` (configuration not stated), with “inactive”.
For the compound `COc1ccc(C2CC(c3ccc(Cl)cc3)=NN2c2ccc(S(N)(=O)=O)cc2)cc1` (configuration not stated), the EC50 result is “inactive”.
Still for that read-out and setting: then `O=S(=O)(c1ccc(N2N=C(c3ccc(Br)cc3)CC2c2ccccc2)cc1)C(F)F` (configuration not stated), with “inactive”; and `COc1ccc(C2=NN(c3ccccc3)C(c3ccc(Cl)cc3)C2)cc1` (configuration not stated), with “inactive”.
The same measure, in the same setting: the result for `Cc1ccccc1C1CC(c2ccccc2)=NN1c1ccc(S(N)(=O)=O)cc1` (configuration not stated) reads “inactive”.
Take `COc1ccc(C2CC(c3ccc(Br)cc3)=NN2c2ccc(S(N)(=O)=O)cc2)cc1` (configuration not stated): the EC50 result is “inactive”.
Turning to `COc1ccc(C2CC(c3ccccc3C(F)(F)F)=NN2c2ccc(S(N)(=O)=O)cc2)cc1` (configuration not stated), the EC50 entry was “inactive”.
Turning to `COc1ccc(C2CC(C)=NN2c2ccc(S(N)(=O)=O)cc2)cc1` (configuration not stated), the EC50 result is “inactive”.
For `COc1ccc(C2CC(c3ccc(F)cc3)=NN2c2cc(Cl)ccc2Cl)cc1` (configuration not stated), the EC50 result is “inactive”.
On the same count and under the same terms, then `COc1ccc(C2CC(c3ccccc3)=NN2c2ccc(C(=O)O)cc2)cc1` (configuration not stated), with “inactive”; and `COc1ccc(C2CC(c3cccc(C)c3)=NN2c2ccc(S(N)(=O)=O)cc2)cc1` (configuration not stated), with “inactive”; and `COc1ccc(C2=NN(c3cccc(F)c3)C(c3ccc(OC)cc3)C2)cc1` (configuration not stated), with “inactive”.
As to `COc1ccc(C2=NN(c3ccccc3)C(c3ccc(OC)c(OC)c3C(=O)O)C2)cc1` (configuration not stated), the EC50 result is “inactive”.
Still for that read-out and setting: then `COc1ccccc1C1CC(c2ccccc2)=NN1c1ccccc1` (configuration not stated), with “inactive”; and `Clc1ccc(N2N=C(c3ccccc3)CC2c2ccccc2)cc1` (configuration not stated), with “inactive”.
Take `COc1ccc(C2CC(c3cccc(N(C)C)c3)=NN2c2ccc(S(N)(=O)=O)cc2)cc1` (configuration not stated): the EC50 result is “inactive”.
Same read-out and setting: then `COc1ccc(C2CC(c3ccc(Cl)cc3)=NN2c2ccccc2)cc1OC` (configuration not stated), with “inactive”; and `Cc1ccc(C2CC(c3ccccc3)=NN2c2ccc(S(N)(=O)=O)cc2)cc1` (configuration not stated), with “inactive”; and `NS(=O)(=O)c1ccc(N2N=C(c3ccccc3)CC2c2ccccc2Cl)cc1` (configuration not stated), with “inactive”.
Turning to `Fc1ccc(C2=NN(c3cccc(Br)c3)C(c3ccccc3)C2)cc1` (configuration not stated), the EC50 result was “inactive”.
In the case of `Cc1onc(-c2ccccc2)c1-c1ccc(S(N)(=O)=O)cc1`, the EC50 entry is “inactive”.
Same read-out and setting: then `COc1cccc(C2CC(c3ccccc3)=NN2c2ccc(S(N)(=O)=O)cc2)c1` (configuration not stated), with “inactive”; and `COc1ccc(C2CC(c3ccccc3)=NN2c2cccc(S(N)(=O)=O)c2)cc1` (configuration not stated), with “inactive”; and `COc1ccc(C2CC(c3ccc(N(C)C)cc3)=NN2c2ccc(S(N)(=O)=O)cc2)cc1` (configuration not stated), with “inactive”.
Consider `COc1ccc(C2CC(C(C)(C)C)=NN2c2ccc(S(N)(=O)=O)cc2)cc1` (configuration not stated), for which the EC50 entry is “inactive”.
The same measure, in the same setting: the result for `COc1ccc(C2=NN(c3ccc(Cl)c(Cl)c3)C(c3ccc(OC)cc3)C2)cc1` (configuration not stated) reads “inactive”.
Consider `COc1ccc(C2CC(c3ccccc3)=NN2c2ccc(S(N)(=O)=O)cc2)cc1OC` (configuration not stated), for which the EC50 entry is “inactive”.
Still for that read-out and setting: the result for `COc1ccc(C2CC(c3cccnc3)=NN2c2ccc(S(N)(=O)=O)cc2)cc1` (configuration not stated) reads “inactive”; that for `Cc1ccccc1N1N=C(c2ccccc2)CC1c1ccc(N(C)C)cc1` (configuration not stated), “inactive”; that for `COc1ccc(C2CC(c3ccc(F)cc3)=NN2c2ccccc2)cc1OC` (configuration not stated), “inactive”.
Regarding `Cc1cccc(N2N=C(c3ccccc3)CC2c2ccccc2)c1` (configuration not stated), the EC50 result is “inactive”.
Regarding `COc1ccc(C2CC(c3ccsc3)=NN2c2ccc(S(N)(=O)=O)cc2)cc1` (configuration not stated), the EC50 entry was “inactive”.
On the same count and under the same terms, then `FC(F)(F)c1cccc(N2N=C(c3ccc(Cl)cc3)CC2c2ccccc2Cl)c1` (configuration not stated), with “inactive”; and `COc1ccc(C2CC(c3ccccc3C)=NN2c2ccc(S(N)(=O)=O)cc2)cc1` (configuration not stated), with “inactive”; and `O=S(=O)(c1ccc(N2N=C(c3ccccc3)CC2c2ccccc2)cc1)C(F)F` (configuration not stated), with “inactive”.
The same measure, in the same setting: then `COc1ccc(C2CC(c3cccc(OC)c3)=NN2c2ccc(S(N)(=O)=O)cc2)cc1` (configuration not stated), with “inactive”.
As for `O=[N+]([O-])c1ccc(N2N=C(c3ccccc3)CC2c2ccc(O)cc2)cc1` (configuration not stated), the EC50 entry is “inactive”.
As for `COc1ccccc1C1CC(c2ccccc2)=NN1c1ccc(S(N)(=O)=O)cc1` (configuration not stated), the EC50 result was “inactive”.
On to `COc1ccc(C2=NN(c3ccccc3F)C(c3ccc(F)cc3)C2)cc1` (configuration not stated), for which the EC50 entry is “inactive”.
The same measure, in the same setting: the result for `COc1ccc(C2CC(c3ccccc3)=NN2c2ccc(C(N)=O)cc2)cc1` (configuration not stated) reads “inactive”.
The same measure, in the same setting: then `CN(C)c1ccc(C2CC(c3ccc(F)cc3)=NN2c2ccccc2)cc1` (configuration not stated), with “inactive”; and `Cc1ccc(-c2cc(C(F)(F)F)nn2-c2ccc(S(N)(=O)=O)cc2)cc1`, with “inactive”; and `COc1ccc(-c2cc(-c3ccccc3)nn2-c2ccc(S(N)(=O)=O)cc2)cc1`, with “inactive”.
On to `COc1ccc(C2=NN(c3cccc(F)c3)C(c3ccc(Cl)cc3)C2)cc1` (configuration not stated), for which the EC50 result was “inactive”.
With `Fc1ccccc1C1CC(c2ccc(Br)cc2)=NN1c1ccc(Br)cc1` (configuration not stated), the EC50 entry was “inactive”.
For the compound `CN(C)c1ccc(C2CC(c3ccccc3)=NN2c2ccc([N+](=O)[O-])cc2)cc1` (configuration not stated), the EC50 entry was “inactive”.
`COc1ccc(C2CC(c3ccc(Br)cc3)=NN2c2ccccc2Cl)cc1` (configuration not stated): the EC50 result was “inactive”.
Same read-out and setting: the result for `COc1ccc(C2CC(c3cccc(C(F)(F)F)c3)=NN2c2ccc(S(N)(=O)=O)cc2)cc1` (configuration not stated) reads “inactive”.
The same measure, in the same setting: then `O=C(O)c1ccc(N2N=C(c3ccccc3)CC2c2ccccc2)cc1` (configuration not stated), with “inactive”; and `Brc1ccc(N2N=C(c3ccccc3)CC2c2ccccc2)cc1` (configuration not stated), with “inactive”.
As to `CCc1ccc(C2=NN(c3ccc(S(N)(=O)=O)cc3)C(c3ccc(F)cc3)C2)cc1` (configuration not stated), the EC50 entry is “inactive”.
Still for that read-out and setting: the result for `COc1ccc(C2CC(c3ccccc3Br)=NN2c2ccc(S(N)(=O)=O)cc2)cc1` (configuration not stated) reads “inactive”; that for `COc1ccc(C2CC(c3cccc(F)c3)=NN2c2ccc(S(N)(=O)=O)cc2)cc1` (configuration not stated), “inactive”.
On the same count and under the same terms, then `NS(=O)(=O)c1ccc(N2N=C(c3ccccc3)CC2c2ccccc2)cc1` (configuration not stated), with “inactive”; and `COc1ccc(C2CC(c3ccccc3)=NN2c2ccc(Cl)c(C(=O)O)c2)cc1OC` (configuration not stated), with “inactive”; and `COc1ccc(C2CC(c3cccc(Br)c3)=NN2c2ccc(S(N)(=O)=O)cc2)cc1` (configuration not stated), with “inactive”.
In the case of `COc1ccc(C2CC(c3ccccc3)=NN2c2ccc([N+](=O)[O-])cc2)cc1` (configuration not stated), the EC50 entry was “inactive”.
As for `COc1ccc(C2CC(c3ccccc3)=NN2c2ccc(Cl)c(C(=O)O)c2)cc1` (configuration not stated), the EC50 entry is “inactive”.
Turning to `NS(=O)(=O)c1ccc(N2N=C(c3ccc(Br)cc3)CC2c2ccc(F)cc2)cc1` (configuration not stated), the EC50 entry is “inactive”.
Still for that read-out and setting: the result for `Cc1cccc(C2CC(c3ccccc3)=NN2c2ccc(S(N)(=O)=O)cc2)c1` (configuration not stated) reads “inactive”; that for `CC(=O)Oc1ccc(C2=NN(c3ccccc3)C(c3ccccc3)C2)cc1` (configuration not stated), “inactive”; that for `COc1ccc(C2CC(c3ccc(C(F)(F)F)cc3)=NN2c2ccc(S(N)(=O)=O)cc2)cc1` (configuration not stated), “inactive”.
`COc1ccc(C2=NN(c3ccc(Cl)cc3)C(c3ccccc3F)C2)cc1` (configuration not stated): the EC50 entry is “inactive”.
Still for that read-out and setting: then `COc1ccc(C2CC(c3cccc(Cl)c3)=NN2c2ccc(S(N)(=O)=O)cc2)cc1` (configuration not stated), with “inactive”; and `NS(=O)(=O)c1ccc(N2N=C(c3ccccc3)CC2c2ccc(Cl)cc2)cc1` (configuration not stated), with “inactive”.
Consider `COc1ccc(C2CC(c3ccc(F)cc3)=NN2c2ccc(S(N)(=O)=O)cc2)cc1` (configuration not stated), for which the EC50 entry was “inactive”.
Regarding `O=S(=O)(O)c1ccc(N2N=C(c3ccccc3)CC2c2ccccc2)cc1` (configuration not stated), the EC50 entry is “inactive”.
Same read-out and setting: the result for `NS(=O)(=O)c1ccc(N2N=C(c3ccccc3)CC2c2ccc(Br)cc2)cc1` (configuration not stated) reads “inactive”.
Still for that read-out and setting: then `COc1ccc(C2CC(c3ccccc3OC)=NN2c2ccc(S(N)(=O)=O)cc2)cc1` (configuration not stated), with “inactive”; and `COc1ccc(C2CC(c3ccccc3Cl)=NN2c2ccc(S(N)(=O)=O)cc2)cc1` (configuration not stated), with “inactive”.
Consider `NS(=O)(=O)c1ccc(N2N=C(c3ccccc3)CC2c2cccc(Cl)c2)cc1` (configuration not stated), for which the EC50 result is “inactive”.
Regarding `COc1ccc(C2CC(c3ccc(C)cc3)=NN2c2ccc(S(N)(=O)=O)cc2)cc1` (configuration not stated), the EC50 entry is “inactive”.
Same read-out and setting: the result for `NS(=O)(=O)c1ccc(N2N=C(c3ccc(Cl)cc3)CC2c2ccccc2)cc1` (configuration not stated) reads “inactive”; that for `NS(=O)(=O)c1ccc(N2N=C(c3ccccc3)CC2c2cccc(Br)c2)cc1` (configuration not stated), “inactive”.
As for `COc1ccc(C2=NN(c3ccccc3)C(c3ccccc3C(F)(F)F)C2)cc1` (configuration not stated), the EC50 result was “inactive”.
The same measure, in the same setting: the result for `COc1ccc(C2=NN(c3ccc(S(N)(=O)=O)cc3)C(c3ccc(OC)cc3)C2)cc1` (configuration not stated) reads “inactive”.
With `FC(F)(F)c1ccccc1C1CC(c2ccc(Br)cc2)=NN1c1ccccc1` (configuration not stated), the EC50 result was “inactive”.
Turning to `O=[N+]([O-])c1cccc(C2CC(c3ccc(F)cc3)=NN2c2ccccc2)c1` (configuration not stated), the EC50 result is “inactive”.
The same measure, in the same setting: the result for `COc1ccc(C2CC(c3cccs3)=NN2c2ccc(S(N)(=O)=O)cc2)cc1` (configuration not stated) reads “inactive”; that for `O=[N+]([O-])c1ccc(N2N=C(c3ccccc3)CC2c2ccccc2)cc1` (configuration not stated), “inactive”.
Regarding `COc1ccc(C2CC(c3ccccc3F)=NN2c2ccc(S(N)(=O)=O)cc2)cc1` (configuration not stated), the EC50 result is “inactive”.

The same experiment, now with this note: Bead-based flow cytometry, Bodipy-FL-GTP binding to GST-Rac1; measured here: Ki calculated from EC50.
On to `COc1ccc(C2CC(c3ccc(F)cc3)=NN2c2cccc(F)c2)cc1OC` (configuration not stated), for which the Ki is 3.03 µM.
With `O=S(=O)(c1ccc(N2N=C(c3ccc(Br)cc3)CC2c2ccccc2)cc1)C(F)F` (configuration not stated), the Ki was 0.79 µM.
The same measure, in the same setting: the result for `COc1ccc(C2=NN(c3ccccc3)C(c3ccc(Cl)cc3)C2)cc1` (configuration not stated) reads 0.84 µM; that for `COc1ccc(C2CC(C)=NN2c2ccc(S(N)(=O)=O)cc2)cc1` (configuration not stated), 0.01 µM.
For the compound `COc1ccc(C2CC(c3ccc(Cl)cc3)=NN2c2ccccc2)cc1OC` (configuration not stated), the Ki was 0.01 µM.
For the compound `Cc1ccc(-c2cc(C(F)(F)F)nn2-c2ccc(S(N)(=O)=O)cc2)cc1`, the inhibition constant Ki was 3.91 µM.
Consider `COc1ccc(C2CC(c3ccc(Br)cc3)=NN2c2ccccc2Cl)cc1` (configuration not stated), for which the Ki is 0.06 µM.
On the same count and under the same terms, then `COc1ccc(C2CC(c3ccccc3Br)=NN2c2ccc(S(N)(=O)=O)cc2)cc1` (configuration not stated), with 0.04 µM; and `COc1ccc(C2=NN(c3ccc(Cl)cc3)C(c3ccccc3F)C2)cc1` (configuration not stated), with 3.26 µM.
